Measurements as given in patent US10793530B2, “Benzylaminopyrazinylcyclopropanecarboxylic acids, pharmaceutical compositions and uses thereof” (Boehringer Ingelheim International GmbH, priority 2017, dated 2020).

Target: human GPR40 receptor (Homo sapiens, UniProt O14842)
Assay: IP1 accumulation measurements using the IPOne assay system
Type: cell-based
Conditions: 1321N1 cells stably expressing human GPR40 receptor; stimulated 1 h at 37° C.
Method: IP1 is assayed according to the manufacturers description (Cisbio Bioassays, France). In brief, the assay is started by substitution of the culture medium by stimulation buffer (Hepes 10 mM, CaCl2 1 mM, MgCl2 0.5 mM, KCl 4.2 mM, NaCl 146 mM, glucose 5.5 mM and LiCl 50 mM, pH 7.4). Cells are stimulated for 1 h at 37° C., 5% CO2 by addition of the compounds that are diluted in stimulation buffer containing LiCl. Assays are stopped by adding HTRF-conjugates (IP1-d2 and Anti-IP1 cryptate Tb) and lysis buffer, provided by the manufacturer. After an incubation time of 1 h at room temperature plates are measured using an EnVision™, Perkin Elmer. The obtained fluorescence ratios at 665/615 […] are then used to calculate the pEC50 values using Assay Explorer 3.3 Software (Accelrys, Inc.) by interpolation using an IP1 reference curve and subsequent sigmoidal curve fitting allowing for a variable hill slope.

Chain of human GPR40 receptor (O14842 whole entry): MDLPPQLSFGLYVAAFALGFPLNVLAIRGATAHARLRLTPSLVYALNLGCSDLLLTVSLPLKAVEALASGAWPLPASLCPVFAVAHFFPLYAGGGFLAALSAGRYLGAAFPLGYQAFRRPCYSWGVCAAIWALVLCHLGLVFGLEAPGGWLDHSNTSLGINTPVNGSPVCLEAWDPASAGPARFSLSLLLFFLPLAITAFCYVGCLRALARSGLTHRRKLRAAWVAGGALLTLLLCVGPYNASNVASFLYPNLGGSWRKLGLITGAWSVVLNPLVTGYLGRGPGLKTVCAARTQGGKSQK

Structure (SMILES)	EC50
Cc1cc(OCC2CCCO2)cc(C)c1-c1ccc(F)c(CNc2cnc(C3CC3C(=O)O)cn2)c1 (mixture of isomers) [Example 44]	1920 nM
Cc1cc(OCCCS(C)(=O)=O)cc(C)c1-c1cccc(CNc2cnc([C@H]3C[C@@H]3C(=O)O)cn2)c1 [Example 1, (1S,2S)-2-(5-{[4′-(3-Methanesulfonyl-propoxy)-2′,6′-dimethyl-biphenyl-3-ylmethyl]-amino}-pyrazin-2-yl)-cyclopropanecarboxylic acid]	36 nM
CC(C)(O)CCOc1ccc(-c2cc(CNc3cnc([C@H]4C[C@@H]4C(=O)O)cn3)ccc2C(F)(F)F)cc1 [Example 2, (1S,2S)-2-(5-{[4′-(3-Hydroxy-3-methyl-butoxy)-6-trifluoromethyl-biphenyl-3-ylmethyl]-amino}-pyrazin-2-yl)-cyclopropanecarboxylic acid]	6 nM
O=C(O)[C@H]1C[C@@H]1c1cnc(NCc2ccc(C(F)(F)F)c(-c3ccc(OCC4CC4)cc3)c2)cn1 [Example 3, (1S,2S)-2-{5-[(4′-Cyclopropylmethoxy-6-trifluoromethyl-biphenyl-3-ylmethyl)-amino]-pyrazin-2-yl}-cyclopropanecarboxylic acid]	28 nM
O=C(O)[C@H]1C[C@@H]1c1cnc(NCc2ccc(C(F)(F)F)c(-c3ccc(OC(F)(F)F)cc3)c2)cn1 [Example 4, (1S,2S)-2-{5-[(4′-Trifluoromethoxy-6-trifluoromethyl-biphenyl-3-ylmethyl)-amino]-pyrazin-2-yl}-cyclopropanecarboxylic acid]	9 nM
Cc1cc(OCCC(C)(C)O)cc(C)c1-c1cc(CNc2cnc([C@H]3C[C@@H]3C(=O)O)cn2)ccc1C(F)(F)F [Example 5, (1S,2S)-2-(5-{[4′-(3-Hydroxy-3-methyl-butoxy)-2′,6′-dimethyl-6-trifluoromethyl-biphenyl-3-ylmethyl]-amino}-pyrazin-2-yl)-cyclopropanecarboxylic acid]	310 nM
COc1ccc(-c2ccc(-c3cc(CNc4cnc([C@H]5C[C@@H]5C(=O)O)cn4)c(F)cc3F)cc2)nc1 [Example 6, (1S,2S)-2-(5-{[4,6-Difluoro-4′-(5-methoxy-pyridin-2-yl)-biphenyl-3-ylmethyl]-amino}-pyrazin-2-yl)-cyclopropanecarboxylic acid]	19 nM
COc1ccc(-c2ccc(-c3cc(CNc4cnc([C@H]5C[C@@H]5C(=O)O)cn4)c(F)cc3F)cc2)nn1 [Example 7, (1S,2S)-2-(5-{[4,6-Difluoro-4′-(6-methoxy-pyridazin-3-yl)-biphenyl-3-ylmethyl]-amino}-pyrazin-2-yl)-cyclopropanecarboxylic acid]	38 nM
Cc1cc(N)ccc1-c1cc(CNc2cnc([C@H]3C[C@@H]3C(=O)O)cn2)c(F)cc1F [Example 8, (1S,2S)-2-{5-[(4′-Amino-4,6-difluoro-2′-methyl-biphenyl-3-ylmethyl)-amino]-pyrazin-2-yl}-cyclopropanecarboxylic acid]	126 nM
O=C(O)[C@H]1C[C@@H]1c1cnc(NCc2cc(-c3ccc(O)c(Cl)c3)c(F)cc2F)cn1 [Example 9, (1S,2S)-2-{5-[(3′-Choro-4,6-difluoro-4′-hydroxy-biphenyl-3-ylmethyl)-amino]-pyrazin-2-yl}-cyclopropanecarboxylic acid]	596 nM
COc1c(F)cc(-c2cc(CNc3cnc([C@H]4C[C@@H]4C(=O)O)cn3)c(F)cc2F)cc1F [Example 10, (1S,2S)-2-{5-[(4,6,3′,5′-Tetrafluoro-4′-methoxy-biphenyl-3-ylmethyl)-amino]-pyrazin-2-yl}-cyclopropanecarboxylic acid]	53 nM
Cc1cc(OCC(C)(C)O)cc(C)c1-c1ccc(F)c(CNc2cnc(C3CC3C(=O)O)cn2)c1 (stereo not drawn) [Example 11]	18 nM
Cc1cc(OCC2(O)CCS(=O)(=O)CC2)cc(C)c1-c1ccc(F)c(CNc2cnc(C3CC3C(=O)O)cn2)c1 (stereo not drawn) [Example 12]	100 nM
CNC(=O)c1cc(C)c(-c2ccc(F)c(CNc3cnc(C4CC4C(=O)O)cn3)c2)c(C)c1 (stereo not drawn) [Example 13]	224 nM
Cc1cc(C(=O)N(C)C)cc(C)c1-c1ccc(F)c(CNc2cnc(C3CC3C(=O)O)cn2)c1 (stereo not drawn) [Example 14]	34 nM
Cc1cc(C(=O)O)cc(C)c1-c1ccc(F)c(CNc2cnc(C3CC3C(=O)O)cn2)c1 (stereo not drawn) [Example 15]	24 nM
Cc1cc(-c2ccc(=O)n(C)c2)cc(C)c1-c1ccc(F)c(CNc2cnc(C3CC3C(=O)O)cn2)c1 (stereo not drawn) [Example 16]	21 nM
CC(C)c1ccccc1-c1ccc(F)c(CNc2cnc(C3CC3C(=O)O)cn2)c1 (stereo not drawn) [Example 17]	154 nM
Cc1cc(OCC2CCOCC2)cc(C)c1-c1ccc(F)c(CNc2cnc(C3CC3C(=O)O)cn2)c1 (stereo not drawn) [Example 18]	14 nM
Cc1cc(OC2CCOCC2)cc(C)c1-c1ccc(F)c(CNc2cnc(C3CC3C(=O)O)cn2)c1 (stereo not drawn) [Example 20]	22 nM
Cc1cc(-c2cc(=O)n(C)cn2)cc(C)c1-c1ccc(F)c(CNc2cnc(C3CC3C(=O)O)cn2)c1 (stereo not drawn) [Example 21]	21 nM
Cc1cc(-c2ccn(C)c(=O)c2)cc(C)c1-c1ccc(F)c(CNc2cnc(C3CC3C(=O)O)cn2)c1 (stereo not drawn) [Example 22]	14 nM
Cc1cc(OCC(C)(C)C#N)cc(C)c1-c1ccc(F)c(CNc2cnc(C3CC3C(=O)O)cn2)c1 (stereo not drawn) [Example 24]	34 nM
Cc1cc(-c2nnn(CC(C)(C)O)n2)cc(C)c1-c1ccc(F)c(CNc2cnc(C3CC3C(=O)O)cn2)c1 (stereo not drawn) [Example 28]	7 nM
Cc1cc(OCC2(O)CCOCC2)cc(C)c1-c1ccc(F)c(CNc2cnc(C3CC3C(=O)O)cn2)c1 (stereo not drawn) [Example 29]	68 nM

Structure (SMILES)	EC50
Cc1cc(OCC2(O)CCSCC2)cc(C)c1-c1ccc(F)c(CNc2cnc(C3CC3C(=O)O)cn2)c1 (stereo not drawn) [Example 30]	28 nM
COc1cc(-c2cc(C)c(-c3ccc(F)c(CNc4cnc(C5CC5C(=O)O)cn4)c3)c(C)c2)ccn1 (stereo not drawn) [Example 31]	5 nM
Cc1nc(-c2ccc(-c3ccc(F)c(CNc4cnc(C5CC5C(=O)O)cn4)c3)cc2)cs1 (stereo not drawn) [Example 32]	20 nM
Cc1cc(OCC2(C)COC2)cc(C)c1-c1ccc(F)c(CNc2cnc(C3CC3C(=O)O)cn2)c1 (stereo not drawn) [Example 33]	147 nM
Cc1cc(OCC(=O)O)cc(C)c1-c1ccc(F)c(CNc2cnc(C3CC3C(=O)O)cn2)c1 (stereo not drawn) [Example 34]	104 nM
CCc1cccc(CC)c1-c1ccc(F)c(CNc2cnc(C3CC3C(=O)O)cn2)c1 (stereo not drawn) [Example 36]	4 nM
COc1cc(OC)c(F)c(-c2ccc(F)c(CNc3cnc(C4CC4C(=O)O)cn3)c2)c1F (stereo not drawn) [Example 37]	47 nM
Cc1cc(CO)cc(C)c1-c1ccc(F)c(CNc2cnc(C3CC3C(=O)O)cn2)c1 (stereo not drawn) [Example 39]	4280 nM
O=C(O)C1CC1c1cnc(NCc2cc(-c3ccccc3C(F)(F)F)ccc2F)cn1 (stereo not drawn) [Example 40]	51 nM
Cc1ccc(Cl)c(-c2ccc(F)c(CNc3cnc(C4CC4C(=O)O)cn3)c2)c1Cl (stereo not drawn) [Example 41]	723 nM
Cc1cc(OC2CCOC2)cc(C)c1-c1ccc(F)c(CNc2cnc(C3CC3C(=O)O)cn2)c1 (stereo not drawn) [Example 42]	28 nM
O=C(O)C1CC1c1cnc(NCc2cc(-c3c(F)cc(F)cc3F)ccc2F)cn1 (stereo not drawn) [Example 45]	34 nM
O=C(O)C1CC1c1cnc(NCc2cc(-c3c(Cl)cccc3Cl)ccc2F)cn1 (stereo not drawn) [Example 46]	6 nM
O=C(O)C1CC1c1cnc(NCc2cc(-c3c(F)cccc3F)ccc2F)cn1 (stereo not drawn) [Example 47]	579 nM
COc1cc(C)c(-c2ccc(F)c(CNc3cnc(C4CC4C(=O)O)cn3)c2)c(C)c1 (stereo not drawn) [Example 48]	24 nM
Cc1cc(C(N)=O)cc(C)c1-c1ccc(F)c(CNc2cnc(C3CC3C(=O)O)cn2)c1 (stereo not drawn) [Example 49]	10 nM
COc1cc(OC)c(Cl)c(-c2ccc(F)c(CNc3cnc(C4CC4C(=O)O)cn3)c2)c1Cl (stereo not drawn) [Example 50]	1390 nM
N#CC1(c2ccccc2-c2ccc(F)c(CNc3cnc(C4CC4C(=O)O)cn3)c2)CC1 (stereo not drawn) [Example 51]	51 nM
COc1cc(OC)c(-c2ccc(F)c(CNc3cnc(C4CC4C(=O)O)cn3)c2)c(OC)c1 (stereo not drawn) [Example 53]	887 nM
O=C(O)C1CC1c1cnc(NCc2cc(-c3c(F)cc(OC4CC4)cc3F)ccc2F)cn1 (stereo not drawn) [Example 54]	11 nM
Nc1cc(F)c(-c2ccc(F)c(CNc3cnc(C4CC4C(=O)O)cn3)c2)c(F)c1 (stereo not drawn) [Example 55]	189 nM
O=C(O)C1CC1c1cnc(NCc2cc(-c3ccc(-c4cnco4)cc3)ccc2F)cn1 (stereo not drawn) [Example 56]	177 nM
N#Cc1cccc(C#N)c1-c1ccc(F)c(CNc2cnc(C3CC3C(=O)O)cn2)c1 (stereo not drawn) [Example 57]	> 10000 nM
COc1cc(F)c(-c2ccc(F)c(CNc3cnc(C4CC4C(=O)O)cn3)c2)c(F)c1 (stereo not drawn) [Example 58]	896 nM
Cc1cccc(C)c1-c1ccc(F)c(CNc2cnc(C3CC3C(=O)O)cn2)c1 (stereo not drawn) [Example 59]	24 nM

Tested on: not listed separately
Assay: Aqueous solubility (buffer vs acetonitrile/water, LC-UV)
Type: physicochemical
Conditions: kinetic from dmso stock, buffer pH 6.8, 24 h of shaking, DMSO concentration of 2.5%
Method: The aqueous solubility of the compounds of the invention is determined by comparing the amount dissolved in buffer to the amount in an acetonitrile/water (1/1) solution. Starting from a 10 mM DMSO stock solution aliquots are diluted with acetonitrile/water (1/1) or buffer, respectively. After 24 h of shaking, the solutions are filtrated and analyzed by LC-UV. The amount dissolved in buffer is compared to the amount in the acetonitrile solution. Solubility is usually being measured from 0.001 to 0.125 mg/mL at a DMSO concentration of 2.5%. If more than 90% of the compound is dissolved in buffer, the value is marked with “>”.

Structure (SMILES)	solubility at 24 h
Cc1cc(OCCC(C)(C)O)cc(C)c1-c1ccc(F)c2c1CC[C@H]2Oc1ccc([C@H]2C[C@@H]2C(=O)O)cc1 [Example 17 in WO 2013/178575, reference compound]	< 1 µg/mL
